This is an account of results in BindingDB's records for doi:10.1016/j.bmcl.2003.10.074 (University of Kentucky, 2004).

This experiment is described as follows: Binding affinity towards blood brain barrier choline transporter at 10 uM using rat brain.
`CCCCCCCCCC[n+]1cccc([C@@H]2CCCN2C)c1` [1-Decyl-3-((S)-1-methyl-pyrrolidin-2-yl)-pyridinium; iodide]: the Ki is 27 µM.

Regarding `CCCCCCCC[n+]1ccccc1` [1-Octyl-pyridinium; iodide], the Ki is 250 µM.

`CCCC[n+]1ccccc1` [1-Butyl-pyridinium] had a Ki of 250 µM.

`CCCCCCCC[N+](C)(C)CCO` [(2-Hydroxy-ethyl)-dimethyl-octyl-ammonium] returned a Ki of 10 µM. Compared with the last molecule, the Ki is about 25-fold lower.

Consider `CCCCCCCC[n+]1cccc([C@@H]2CCCN2C)c1` [(S)-3-(1-methylpyrrolidin-2-yl)-1-octylpyridinium iodide], for which the Ki came to 49 µM.

The Ki is a measure of affinity in units of concentration, obtained from inhibition or displacement. Read a high Ki as weaker binding.
